From the NIST ThermoML archive (doi:10.1021/acs.jced.8b00585)
± gives the expanded uncertainty stated by the source.

Conditions: Liquid; for Critical pressure: Direct measurement; for Critical temperature: Visual observation in an unstirred cell

| Structure (SMILES) | Critical pressure | Critical temperature |
| --- | --- | --- |
| CCCCO [butan-1-ol] | 4406 ± 22 kPa | 563 ± 0.4 K |
| CCCCCCCCCC [decane] | 2106 ± 15 kPa | 617.7 ± 0.4 K |
| CCCCCCC [heptane] | 2736 ± 17 kPa | 540.1 ± 0.4 K |
| CCCCCCCCC [nonane] | 2278 ± 16 kPa | 594.5 ± 0.4 K |

Next, values leading:

| Critical pressure | Critical temperature | Structure (SMILES) |
| --- | --- | --- |
| 3033 ± 18 kPa | 507.8 ± 0.4 K | CCCCCC [hexane] |
| 2496 ± 16 kPa | 568.9 ± 0.4 K | CCCCCCCC [octane] |
